Test results: patent US12090204B2, “Photodynamic therapy compositions and methods of use thereof” (Pinnacle Biologics, Inc., priority 2020, dated 2024)
“And” between values parts separate entries of the source, which are not always exact repeats. Equal entries are not always repeated.

Assays:
[1] = test system: methicillin-resistant Staphylococcus aureus (MRSA), Staphylococcus aureus ATCC BAA 1768; experiment: partial thickness wound model, microbial load in wound swabs (Example 4); type: in vivo, Yorkshire pig; conditions: for overall decrease of mean microbial load in wound swabs over the course of treatment (SD1 to SD3): untreated Group 2: 20-fold; for WOUND SWABS (CFU/mL) 24 hr. Post-Treat 2 / WOUND SWABS (CFU/mL) Immediately Post-Treat 2 / WOUND SWABS (CFU/mL) Pre-treat 2 / WOUND SWABS (CFU/mL) Pre-Treat 1: individual wounds; for WOUND SWABS (CFU/mL) Pre-Treat 1: 1.0 mg/mL
Description: Bacteria strains were obtained from ATCC (Manassas, VA). Bacteria were propagated from glycerol stock store at −80° C. A stab of the glycerol stock was used to inoculate 5 mL of trypticase soy broth. The cultures were incubated overnight at 37° C. with shaking at 250 rpm. The following day, a portion of overnight culture was used to prepare a streak plate onto an Oxacillin screen plate which was incubated overnight at 37° C. and single colony isolates of freshly plated bacteria were used to prepare bacterial inoculum. The morning of wounding an infection, a portion of overnight culture was used to inoculate 50 mL of trypticase soy broth and the newly inoculated media was incubated at 37° C. with shaking at 250 rpm until log phase growth was reached. The bacteria were pelleted by centrifugation at 4,000 rpm at 4° C. for 10 minutes in a Sorval tabletop centrifuge. The culture supernatant was discarded, and the bacterial pellets were suspended in a volume of sterile PBS to yield a concentration of 2×10^7 CFU/mL.
Wounds were swabbed with a sterile cotton tipped applicator in a serpentine motion starting at the upper left-hand margin of the wound and ending at the bottom right wound margin. A dry sterile cotton tipped applicator was used for all wounds. The swabs were placed into 14 mL falcon tubes containing 1 mL of sterile PBS. The tubes were vigorously vortexed and serial 10-fold dilutions of the PBS in the tubes containing the swabs were prepared. One hundred microliters of select dilutions for wound groups were plated onto agar plates. The plates were incubated at 35-37° C. and colonies enumerated manually. The data are reported as CFU/swab normalized to the volume of PBS in which the swabs were placed.
This study evaluated the ability of porfimer sodium to reduce/eliminate microbial colonization and biofilm from surgical sites in a partial thickness would healing model. The study was conducted in a single female Yorkshire pig over the course of five days. A dermatome was used to create 20 partial thickness wounds. Sixteen of the wounds were infected with methicillin-resistant Staphylococcus aureus (MRSA), and four were designated as uninfected controls. The wounds were bandaged and the bacterial biofilm allowed to develop for 48 hours.
Designated infected wounds were subjected to two courses of treatment with the test article at a periodicity of 24 hours. Article dose concentration of 1.0 mg/mL of porfimer sodium was prepared as described in Example 3, and used immediately, with the exception of two wounds (L6 and L7) where the test article (reconstituted porfimer sodium) was mixed 1:1 with NeilMed NasalGel.
Treatments consisted of application of the test article followed by photoactivation with one or two intensities of light, 150 J/cm^2 or 200 J/cm^2 (Table 3). Wounds were evaluated for microbial load prior to each course of treatment, immediately following the final treatment and 24 hours following the final treatment. Tissue specimens from infected and non-infected wounds were harvested for histology of biofilm formation at each treatment time point. Tissue specimens from treated wounds were harvested 24 hours following the final treatments for histology.

S. aureus (+) = experiment: porfimer sodium aPDT, 48 hour biofilm culture; type: cell-based, Staphylococcus aureus; conditions: 630 nm, kill at 75 J/cm2 (light dose 75-100 J/cm2), porfimer sodium 250 μg/mL
Description: (§1) Bacteria were routinely cultured using tryptic soy broth or agar at 37° C. in a 5% CO2 incubator. Bacteria were isolated and suspended with 0.9% NaCl to an Optical Density (OD) of 0.1 taken at 630 nm, to generate the inoculum used for either planktonic or biofilm assays.
(§2) The colony forming units (CFU) per mL of the starting inoculum for every experiment was determined by dilution plating. Control samples were exposed to laser at 630 nm in the absence of porfimer sodium, porfimer sodium in the absence of laser exposure, or in saline alone in the absence of porfimer sodium and 630 nm laser light. All experimental samples were dilution plated to enumerate viable CFU's. Three independent replicates were performed for each reaction condition per strain per assay. […]
(§3) Bacteria were exposed to 630 nm laser light via a fiber optic with a lens affixed to the distal end to provide a uniform diverging light field. […] Power output of the laser was measured using a UDT/Gamma Scientific 371 optical power meter and an integrating sphere. […]
(§4) Biofilms were formed on glass coupons in culture dishes containing a bacterial inoculum for 48 hours under conditions specific to the strain. […] Power output of the laser was measured using a UDT/Gamma Scientific 371 optical power meter and an integrating sphere. […]

P. acnes (+) = experiment: porfimer sodium aPDT, 48 hour biofilm culture; type: cell-based, Proprionibacterium acnes (Cutibacterium acnes); conditions: 630 nm, kill at 100 J/cm2 (light dose 75-100 J/cm2), porfimer sodium 250 μg/mL
Description: as §1, §2, §3, §4

[2] = Group 4 (200 J/cm^2), N 3, without wounds L6, R5, R9

Substance: porfimer sodium
- Mean microbial load, Posttreat 2 (swab) ([1]; Group 3 (150 J/cm^2), N 6): 5.33E+03 CFU/swab
- Mean microbial load, Pretreat 1 (swab) ([1]; Group 3 (150 J/cm^2), N 6): 9.91E+05 CFU/swab
- Mean microbial load, Pretreat 2 (swab) ([1]; Group 3 (150 J/cm^2), N 6): 1.90E+05 CFU/swab
- additional decrease of mean microbial load in wound swabs following Treatment 2 ([1]; Group 3, 150 J/cm^2): 36 fold
- decrease of mean microbial load in wound swabs following treatment 1 (SD1 to SD2) ([1]; Group 3, 150 J/cm^2): 5.2 fold
- overall decrease of mean microbial load in wound swabs over the course of treatment (SD1 to SD3) ([1]; Group 3, 150 J/cm^2): 186 fold
- WOUND SWABS (CFU/mL) 24 hr. Post-Treat 2 ([1]; Group 3 = 150 J/cm2 treatment): 1.14E+04 CFU/mL and 1.17E+04 CFU/mL and 3.50E+02 CFU/mL and 2.65E+03 CFU/mL and 4.30E+03 CFU/mL
- WOUND SWABS (CFU/mL) Immediately Post-Treat 2 ([1]; Group 3 = 150 J/cm2 treatment): 1.92E+05 CFU/mL and 6.16E+03 CFU/mL
- WOUND SWABS (CFU/mL) Pre-treat 2 ([1]; Group 3 = 150 J/cm2 treatment): 8.80E+04 CFU/mL and 6.60E+05 CFU/mL and 2.74E+03 CFU/mL and 4.20E+04 CFU/mL and 3.45E+05 CFU/mL
- WOUND SWABS (CFU/mL) Pre-Treat 1 ([1]; Group 3 = 150 J/cm2 treatment): 6.30E+05 CFU/mL and 3.03E+06 CFU/mL and 2.88E+05 CFU/mL and 4.00E+03 CFU/mL and 5.40E+04 CFU/mL
- Mean microbial load, Posttreat 2 (swab) [1, 2]: 1.16E+03 CFU/swab
- Mean microbial load, Pretreat 1 (swab) [1, 2]: 8.53E+05 CFU/swab
- Mean microbial load, Pretreat 2 (swab) [1, 2]: 5.11E+05 CFU/swab
- additional decrease of mean microbial load in wound swabs following Treatment 2 ([1]; Group 4, 200 J/cm^2): 250 fold
- decrease of mean microbial load in wound swabs following treatment 1 (SD1 to SD2) ([1]; Group 4, 200 J/cm^2): 1.7 fold
- overall decrease of mean microbial load in wound swabs over the course of treatment (SD1 to SD3) ([1]; Group 4, 200 J/cm^2): 735 fold
- WOUND SWABS (CFU/mL) 24 hr. Post-Treat 2 ([1]; Group 4 = 200 J/cm2 treatment): 1.55E+03 CFU/mL and 1.79E+02 CFU/mL and 1.75E+03 CFU/mL and 3.15E+03 CFU/mL and 2.31E+02 CFU/mL
- WOUND SWABS (CFU/mL) Immediately Post-Treat 2 ([1]; Group 4 = 200 J/cm2 treatment): 4.20E+04 CFU/mL and 2.80E+04 CFU/mL
- WOUND SWABS (CFU/mL) Pre-treat 2 ([1]; Group 4 = 200 J/cm2 treatment): 1.40E+04 CFU/mL and 2.00E+04 CFU/mL and 1.50E+06 CFU/mL and 1.44E+06 CFU/mL and 7.60E+00 CFU/mL
- WOUND SWABS (CFU/mL) Pre-Treat 1 ([1]; Group 4 = 200 J/cm2 treatment): 2.42E+05 CFU/mL and 2.60E+04 CFU/mL and 2.29E+06 CFU/mL and 0.00E+00 CFU/mL (2×)
- consistency of results when applied directly to infected wounds ([1]; porfimer sodium mixed in saline): inconsistency in the results
- Rate of kill (S. aureus (+)): >6Log
- Rate of kill (P. acnes (+)): 7Log
